In article PMC7168207, “Dibasic Derivatives of Phenylcarbamic Acid as Prospective Antibacterial Agents Interacting with Cytoplasmic Membrane” (Antibiotics, 2020):
“And” between values parts separate entries of the source, which are not always exact repeats. Equal entries are not always repeated. Where two headings read alike, the source gives them in different places. Marks after values point to notes of the source that are not given here.

How the values were obtained:
MRSA 63718 = test: time-kill study; format: cell-based, Staphylococcus aureus; details: MRSA1
Text: (§1) Time-kill studies are used to evaluate the dynamics of antibacterial activity. As mentioned above, a pre-test to determine minimum bactericidal concentration (MBC) by sub-cultivation of aliquots on agar was made (see Section 3.4). […] Time-kill studies were made with methicillin-susceptible S. aureus ATCC 29213 and methicillin-resistant MRSA 63718, vancomycin-susceptible E. faecalis ATCC 29212, and all three VRE isolates. Vancomycin was used as a control (Table 6).
(§2) The method of time-kill curves was used to study the bactericidal effect of selected compounds. […] The experiment was performed with S. aureus ATCC 29213, MRSA 63718, E. faecalis ATCC 29212, and all VRE isolates. […] The tubes were inoculated by bacterial inoculum in the exponential phase of growth to get a final concentration of 7.5 × 10^6 CFU/mL. The tubes were incubated statically at 37 °C. Immediately after inoculation and after 4, 6, 8, and 24 h, 100 µL of the sample was serially diluted (1:10) in PBS. Then, 2 × 20 µL from each dilution were put onto a Mueller–Hinton agar plate and cultivated at 37 °C for 24 h. After incubation, CFUs of dilutions containing 5–50 colonies were counted. Results were expressed as a decrease of log10(CFU) in each time compared to the starting inoculum. Bactericidal effect is defined as a −3log decrease of CFU/mL compared to the growth control in time 0. The test was made in duplicate on two separate occasions, and the results were averaged. The growth curves with error bars are shown in Figures S1 and S2 in Supplementary Materials.

S. aureus ATCC 29213 [1] = test: time-kill study; format: cell-based, Staphylococcus aureus; details: SA
Text: as §1, §2

VRE 368 = test: synergy with antibiotics (FIC index, checkerboard); format: cell-based, Enterococcus faecalis; details: for MIC: Enterococcus, VRE, read-out: MIC of each antibacterial drug alone observed in the synergy experiment; for concentrations of the tested compound/clinically used antibiotic providing additivity or synergy: in the combination of that line
Text: (§3) Representatives from various classes were chosen in order to study the potential difference in synergistic activity according to the diverse mechanisms of action and resistance of these drugs. The method of minimal fractional inhibitory concentration (FIC) index (FICI) in a microtitration plate was used. FICI ≤ 0.5 means synergy; 0.5 < FICI < 1 means additivity; 1 ≤ FICI < 4 means indifference; and FICI ≥ 4 means antagonism.
(§4) For synergy effect study, a method of fractional inhibitory concentration was used. […] Raw H was used for the evaluation of MIC(A); column 12 was used for evaluation of MIC(B). The plate was inoculated by the bacterial suspension to reach final concentration of 5 × 10^5 CFU/mL in the wells. The fractional inhibitory concentration (FIC) index was calculated using the concentrations in the first nonturbid (clear) well found in each row and column along the turbidity/nonturbidity interface. To interpret the combined effect, the lowest FICI was used. A ΣFIC ≤ 0.5 means synergy; 0.5 < ΣFIC < 1 means additivity; 1 ≤ ΣFIC < 4 means indifference; and ΣFIC ≥ 4 means antagonism. The tests were made in duplicate, and the results were averaged.

VRE 342B = test: synergy with antibiotics (FIC index, checkerboard); format: cell-based, Enterococcus faecalis; details: for MIC: Enterococcus, read-out: MIC of each antibacterial drug alone observed in the synergy experiment; for concentrations of the tested compound/clinically used antibiotic providing additivity or synergy: in the combination of that line
Text: as §3, §4

S. aureus ATCC 29213 [2] = test: crystal violet uptake (membrane permeability); format: cell-based, Staphylococcus aureus; details: 64 µg/mL, 1 h; two-way ANOVA, Tukey's test, p < 0.05
Experimental: The alternation in membrane permeability was detected by crystal violet assay. Bacterial suspension treated by compounds 1f, 1g, and 1h (all 64 µg/mL) for 1 h was prepared. The uptake of crystal violet was expressed as a percentage compared to the original crystal violet solution.
The method of crystal violet uptake was used to study membrane alteration. Bacterial suspension was cultivated to log phase in CaMH and then harvested at 4500 rpm for 5 min. The cells were washed twice and resuspended in PBS containing 64 µg/mL of the tested compounds. […] A growth control without antibiotics and a control containing the same amount of DMSO as treated tubes were included. The tubes were cultivated at 37 °C for 1 h. After that, the tubes were centrifuged at 4500 rpm for 15 min and washed twice in PBS. The cells were resuspended in PBS containing crystal violet (10 µg/mL). After 15 min incubation at 37 °C and centrifugation (15 min, 4500 rpm), the absorbance of supernatant at 595 nm was measured. The experiment was repeated three times, and the results were averaged. The percentage of crystal violet uptake was counted according to the equation:(1) % of uptake = OD595 of sample/OD595 of crystal violet solution × 100

[3] = design: method as in PMID 30274224; details: cited from earlier work
[4] = design: method as in PMID 30274224; details: methanolic solutions, c = 8.0 × 10^−5 M; cited from earlier work

CN[C@H](CC(C)C)C(=O)N[C@H]1C(=O)N[C@@H](CC(N)=O)C(=O)N[C@H]2C(=O)N[C@H]3C(=O)N[C@H](C(=O)N[C@H](C(=O)O)c4cc(O)cc(O)c4-c4cc3ccc4O)[C@H](O)c3ccc(c(Cl)c3)Oc3cc2cc(c3O[C@@H]2O[C@H](CO)[C@@H](O)[C@H](O)[C@H]2O[C@H]2C[C@](C)(N)[C@H](O)[C@H](C)O2)Oc2ccc(cc2Cl)[C@H]1O [VAN, vancomycin, reference compound]
Log10 Difference in CFU/mL from Inoculum (MRSA 63718; 1 × MIC, 4 h): −1.00 log10 CFU/mL | Log10 Difference in CFU/mL from Inoculum (MRSA 63718; 1 × MIC, 6 h): −1.50 log10 CFU/mL | Log10 Difference in CFU/mL from Inoculum (MRSA 63718; 1 × MIC, 8 h): −1.76 log10 CFU/mL | Log10 Difference in CFU/mL from Inoculum (MRSA 63718; 1 × MIC, 24 h): 0.55 log10 CFU/mL | Log10 Difference in CFU/mL from Inoculum (MRSA 63718; 2 × MIC, 4 h): −0.91 log10 CFU/mL | Log10 Difference in CFU/mL from Inoculum (MRSA 63718; 2 × MIC, 6 h): −1.43 log10 CFU/mL | Log10 Difference in CFU/mL from Inoculum (MRSA 63718; 2 × MIC, 8 h): −1.97 log10 CFU/mL | Log10 Difference in CFU/mL from Inoculum (MRSA 63718; 2 × MIC, 24 h): −5.18 log10 CFU/mL | Log10 Difference in CFU/mL from Inoculum (MRSA 63718; 4 × MIC, 4 h): −1.31 log10 CFU/mL | Log10 Difference in CFU/mL from Inoculum (MRSA 63718; 4 × MIC, 6 h): −1.75 log10 CFU/mL | Log10 Difference in CFU/mL from Inoculum (MRSA 63718; 4 × MIC, 8 h): −3.89 log10 CFU/mL | Log10 Difference in CFU/mL from Inoculum (MRSA 63718; 4 × MIC, 24 h): −5.19 log10 CFU/mL | Log10 Difference in CFU/mL from Inoculum (S. aureus ATCC 29213 [1]; 1 × MIC, 4 h): −0.37 log10 CFU/mL | Log10 Difference in CFU/mL from Inoculum (S. aureus ATCC 29213 [1]; 1 × MIC, 6 h): −0.65 log10 CFU/mL | Log10 Difference in CFU/mL from Inoculum (S. aureus ATCC 29213 [1]; 1 × MIC, 8 h): −0.84 log10 CFU/mL | Log10 Difference in CFU/mL from Inoculum (S. aureus ATCC 29213 [1]; 1 × MIC, 24 h): 2.90 log10 CFU/mL | Log10 Difference in CFU/mL from Inoculum (S. aureus ATCC 29213 [1]; 2 × MIC, 4 h): −0.26 log10 CFU/mL | Log10 Difference in CFU/mL from Inoculum (S. aureus ATCC 29213 [1]; 2 × MIC, 6 h): −0.59 log10 CFU/mL | Log10 Difference in CFU/mL from Inoculum (S. aureus ATCC 29213 [1]; 2 × MIC, 8 h): −1.12 log10 CFU/mL | Log10 Difference in CFU/mL from Inoculum (S. aureus ATCC 29213 [1]; 2 × MIC, 24 h): −3.67 log10 CFU/mL | Log10 Difference in CFU/mL from Inoculum (S. aureus ATCC 29213 [1]; 4 × MIC, 4 h): −0.27 log10 CFU/mL | Log10 Difference in CFU/mL from Inoculum (S. aureus ATCC 29213 [1]; 4 × MIC, 6 h): −0.38 log10 CFU/mL | Log10 Difference in CFU/mL from Inoculum (S. aureus ATCC 29213 [1]; 4 × MIC, 8 h): −1.18 log10 CFU/mL | Log10 Difference in CFU/mL from Inoculum (S. aureus ATCC 29213 [1]; 4 × MIC, 24 h): −5.47 log10 CFU/mL | MIC (VRE 368): 512 µg/mL | concentrations of the tested compound/clinically used antibiotic providing additivity or synergy (VRE 368; VRE 368): 128 µg/mL | MIC (VRE 342B; VRE): 1020 µg/mL | concentrations of the tested compound/clinically used antibiotic providing additivity or synergy (VRE 342B; VRE 342B): 128 µg/mL and 256 µg/mL

CCCCCCOc1cccc(NC(=O)OC(CN(CCC)CCC)CN2CCCC2)c1.Cl.Cl (centres unmarked) [1g, 1-[3-(dipropylammonio)-2-({[3-(hexyloxy)phenyl]carbamoyl}oxy)propyl]pyrrolidinium dichloride]
Log10 Difference in CFU/mL from Inoculum (MRSA 63718; 1 × MIC, 4 h): 0.00 log10 CFU/mL | Log10 Difference in CFU/mL from Inoculum (MRSA 63718; 1 × MIC, 6 h): 0.66 log10 CFU/mL | Log10 Difference in CFU/mL from Inoculum (MRSA 63718; 1 × MIC, 8 h): 1.00 log10 CFU/mL | Log10 Difference in CFU/mL from Inoculum (MRSA 63718; 1 × MIC, 24 h): 1.99 log10 CFU/mL | Log10 Difference in CFU/mL from Inoculum (MRSA 63718; 2 × MIC, 4 h): −1.33 log10 CFU/mL | Log10 Difference in CFU/mL from Inoculum (MRSA 63718; 2 × MIC, 6 h): −0.93 log10 CFU/mL | Log10 Difference in CFU/mL from Inoculum (MRSA 63718; 2 × MIC, 8 h): −0.26 log10 CFU/mL | Log10 Difference in CFU/mL from Inoculum (MRSA 63718; 2 × MIC, 24 h): 1.29 log10 CFU/mL | Log10 Difference in CFU/mL from Inoculum (MRSA 63718; 4 × MIC, 4 h): −2.57 * log10 CFU/mL | Log10 Difference in CFU/mL from Inoculum (MRSA 63718; 4 × MIC, 6 h): −1.99 * log10 CFU/mL | Log10 Difference in CFU/mL from Inoculum (MRSA 63718; 4 × MIC, 8 h): −1.26 * log10 CFU/mL | Log10 Difference in CFU/mL from Inoculum (MRSA 63718; 4 × MIC, 24 h): 1.21 log10 CFU/mL | Log10 Difference in CFU/mL from Inoculum (S. aureus ATCC 29213 [1]; 1 × MIC, 4 h): 1.54 log10 CFU/mL | Log10 Difference in CFU/mL from Inoculum (S. aureus ATCC 29213 [1]; 1 × MIC, 6 h): 1.98 log10 CFU/mL | Log10 Difference in CFU/mL from Inoculum (S. aureus ATCC 29213 [1]; 1 × MIC, 8 h): 2.33 log10 CFU/mL | Log10 Difference in CFU/mL from Inoculum (S. aureus ATCC 29213 [1]; 1 × MIC, 24 h): 2.74 log10 CFU/mL | Log10 Difference in CFU/mL from Inoculum (S. aureus ATCC 29213 [1]; 2 × MIC, 4 h): 0.87 log10 CFU/mL | Log10 Difference in CFU/mL from Inoculum (S. aureus ATCC 29213 [1]; 2 × MIC, 6 h): 0.98 log10 CFU/mL | Log10 Difference in CFU/mL from Inoculum (S. aureus ATCC 29213 [1]; 2 × MIC, 8 h): 1.26 log10 CFU/mL | Log10 Difference in CFU/mL from Inoculum (S. aureus ATCC 29213 [1]; 2 × MIC, 24 h): 2.24 log10 CFU/mL | Log10 Difference in CFU/mL from Inoculum (S. aureus ATCC 29213 [1]; 4 × MIC, 4 h): −0.26 log10 CFU/mL | Log10 Difference in CFU/mL from Inoculum (S. aureus ATCC 29213 [1]; 4 × MIC, 6 h): −0.04 log10 CFU/mL | Log10 Difference in CFU/mL from Inoculum (S. aureus ATCC 29213 [1]; 4 × MIC, 8 h): 0.10 log10 CFU/mL | Log10 Difference in CFU/mL from Inoculum (S. aureus ATCC 29213 [1]; 4 × MIC, 24 h): 1.85 log10 CFU/mL | crystal violet uptake compared with 1% Tween 20 (positive control) (S. aureus ATCC 29213 [2]): No statistically significant difference | γ (surface tension, relative surface activity) [3]: 0.06105 N/m | MIC (VRE 368; VRE 368, tested compound/antibiotic): 8 µg/mL | concentrations of the tested compound/clinically used antibiotic providing additivity or synergy (VRE 368; VRE 368): 4 µg/mL | MIC (VRE 342B; VRE 342B, tested compound/antibiotic): 8 µg/mL | concentrations of the tested compound/clinically used antibiotic providing additivity or synergy (VRE 342B; VRE 342B): 4 µg/mL | log ε2 (Ch-T) [4]: 4.13

CCCCCOc1cccc(NC(=O)OC(CN(CCC)CCC)CN2CCCC2)c1.Cl.Cl (centres unmarked) [1f, 1-[3-(dipropylammonio)-2-({[3-(pentyloxy)phenyl]carbamoyl}-oxy)propyl]pyrrolidinium dichloride]
crystal violet uptake compared with 1% Tween 20 (positive control) (S. aureus ATCC 29213 [2]): No statistically significant difference | γ (surface tension, relative surface activity) [3]: 0.06285 N/m | log ε2 (Ch-T) [4]: 4.27
